The values that follow are results of earlier work, collected in US20210322464A1 (priority 2020, published 2021).

The conditions of the series: 1000 μg per day, constant syringe pump infusion for 14 days; cited from earlier work.

The structures appear in SMILES notation.

On to `O=[Se](O)O` [sodium selenite], for which the adverse effects result is recorded as “No adverse effects”.
